From US12371426B2, “Pyridazine derivatives as SMARCA2/4 degraders” (Aurigene Discovery Technologies Limited, priority 2018, dated 2025)

Experiments:
Assay type in all cases: cell-based
SMARCA2 = SMARCA2 (Homo sapiens, UniProt P51531); assay: SMARCA2 degradation in H929 cells by Western blot; parameters: endogenous in cells; details: 16 hours
Description: (§1) Determination of SMARCA2 and SMARCA4 Degradation in H929 Cells by Western Blot:
(§2) NCI-H929 (ATCC CRL-9068) was plated in 6 well plates using complete RPMI-1640 media. Next day, compounds of present invention were added to cells from 10 mM stocks made in DMSO (Sigma Cat no. D2650). Each concentration of compound was tested with DMSO not exceeding final percentage of 0.3 in the cells. Cells were incubated with the compound for 16 hours followed by harvesting with 1× RIPA lysis buffer (Thermo Fischer, catalogue number #89900) containing protease inhibitor cocktail (Sigma catalogue number #P-8340). Equal amount of protein was loaded on SDS PAGE gel for electrophoresis. Western blot was carried out for detection of either SMARCA2 (Cell signaling technologies, catalogue number #11966) or SMARCA4 antibody (Cell signaling technologies, catalogue number #49360). Beta Actin (Santa Cruz, catalogue number #69879) was used as loading control. Percentage of SMARCA2 or SMARCA4 degradation was calculated using formula % Degradation=100−(normalized band intensity in treated sample/normalized band intensity in DMSO sample)*100.
(§3) Selected compounds of the present invention were screened in the above mentioned assay procedures for determination of % SMARCA2 and SMARCA4 degradation 100 nM and the results are summarized in below table 30.

NCI-H929 cells = assay: Anti proliferative activity in NCI-H929 cell line by Cell Titer Glo assay; details: Homo sapiens, 72 h, 3 days compound incubation, CellTiter Glo, read-out: Anti-proliferative activity IC50 group (NCI-H929 cells)
Description: (§4) Determination of Anti Proliferative Activity of Compounds in NCI-H929 and NCI-H838 Cell Lines by Cell Titer Glo® (promega) assay:
(§5) NCI-H929 (ATCC CRL-9068) or NCI-H838 (ATCC CRL-5844) cells were seeded in 96 well plate flat black clear bottom plates (Corning, Cat. No 3904) using complete RPMI-1640 media. Next day, compounds listed in the present invention were added to cells from 10 mM stocks made in DMSO (Sigma Cat no. D2650). Each concentration of compound was tested in triplicate with DMSO concentration at a final percentage not exceeding 0.3 in the cells. After the compound incubation (3 days for H929 and 8 days for H838) assay was terminated using 50 μl of CellTiter Glo® reagent (Promega, Cat. no G7572). CellTiter Glo® Luminescent reagent determines the number of viable cells based on quantitation of ATP present which is an indicator of cell number and metabolic activity. Luminescence readings were taken in Victor-3 instrument. Percent inhibition of proliferation was calculated using formula, % inhibition=100−(luminescence value of test/luminescence value of DMSO control)*100. DMSO control (0%)=Cells in complete media with DMSO; blank=Media alone containing DMSO. IC50 was calculated using graph pad prism software.
(§6) Herein group “A” refers to IC50 value lower than 1 μM, “B” refers to IC50 value between 1-10 μM (both inclusive) and “C” refers to IC50 value higher than 10 μM or less than 50% activity at 10 μM.

SMARCA4 = biological target: T1, SMARCA4 (Homo sapiens, UniProt P51532); assay: SMARCA4 degradation in H929 cells by Western blot; details: 16 hours; for SMARCA4 percent degradation at 0.1 µM: NCI-H929, 100 nM
T1 construct: endogenous in cells; host or cells: NCI-H929 (ATCC CRL-9068)
Description: as §1, §2, §3

NCI-H838 cells = assay: Anti proliferative activity in NCI-H838 cell line by Cell Titer Glo assay; details: Homo sapiens, 192 h, 8 days compound incubation, CellTiter Glo, read-out: Anti-proliferative activity IC50 group (NCI-H838 cells)
Description: as §4, §5, §6

T1 sequence (P51532 whole entry): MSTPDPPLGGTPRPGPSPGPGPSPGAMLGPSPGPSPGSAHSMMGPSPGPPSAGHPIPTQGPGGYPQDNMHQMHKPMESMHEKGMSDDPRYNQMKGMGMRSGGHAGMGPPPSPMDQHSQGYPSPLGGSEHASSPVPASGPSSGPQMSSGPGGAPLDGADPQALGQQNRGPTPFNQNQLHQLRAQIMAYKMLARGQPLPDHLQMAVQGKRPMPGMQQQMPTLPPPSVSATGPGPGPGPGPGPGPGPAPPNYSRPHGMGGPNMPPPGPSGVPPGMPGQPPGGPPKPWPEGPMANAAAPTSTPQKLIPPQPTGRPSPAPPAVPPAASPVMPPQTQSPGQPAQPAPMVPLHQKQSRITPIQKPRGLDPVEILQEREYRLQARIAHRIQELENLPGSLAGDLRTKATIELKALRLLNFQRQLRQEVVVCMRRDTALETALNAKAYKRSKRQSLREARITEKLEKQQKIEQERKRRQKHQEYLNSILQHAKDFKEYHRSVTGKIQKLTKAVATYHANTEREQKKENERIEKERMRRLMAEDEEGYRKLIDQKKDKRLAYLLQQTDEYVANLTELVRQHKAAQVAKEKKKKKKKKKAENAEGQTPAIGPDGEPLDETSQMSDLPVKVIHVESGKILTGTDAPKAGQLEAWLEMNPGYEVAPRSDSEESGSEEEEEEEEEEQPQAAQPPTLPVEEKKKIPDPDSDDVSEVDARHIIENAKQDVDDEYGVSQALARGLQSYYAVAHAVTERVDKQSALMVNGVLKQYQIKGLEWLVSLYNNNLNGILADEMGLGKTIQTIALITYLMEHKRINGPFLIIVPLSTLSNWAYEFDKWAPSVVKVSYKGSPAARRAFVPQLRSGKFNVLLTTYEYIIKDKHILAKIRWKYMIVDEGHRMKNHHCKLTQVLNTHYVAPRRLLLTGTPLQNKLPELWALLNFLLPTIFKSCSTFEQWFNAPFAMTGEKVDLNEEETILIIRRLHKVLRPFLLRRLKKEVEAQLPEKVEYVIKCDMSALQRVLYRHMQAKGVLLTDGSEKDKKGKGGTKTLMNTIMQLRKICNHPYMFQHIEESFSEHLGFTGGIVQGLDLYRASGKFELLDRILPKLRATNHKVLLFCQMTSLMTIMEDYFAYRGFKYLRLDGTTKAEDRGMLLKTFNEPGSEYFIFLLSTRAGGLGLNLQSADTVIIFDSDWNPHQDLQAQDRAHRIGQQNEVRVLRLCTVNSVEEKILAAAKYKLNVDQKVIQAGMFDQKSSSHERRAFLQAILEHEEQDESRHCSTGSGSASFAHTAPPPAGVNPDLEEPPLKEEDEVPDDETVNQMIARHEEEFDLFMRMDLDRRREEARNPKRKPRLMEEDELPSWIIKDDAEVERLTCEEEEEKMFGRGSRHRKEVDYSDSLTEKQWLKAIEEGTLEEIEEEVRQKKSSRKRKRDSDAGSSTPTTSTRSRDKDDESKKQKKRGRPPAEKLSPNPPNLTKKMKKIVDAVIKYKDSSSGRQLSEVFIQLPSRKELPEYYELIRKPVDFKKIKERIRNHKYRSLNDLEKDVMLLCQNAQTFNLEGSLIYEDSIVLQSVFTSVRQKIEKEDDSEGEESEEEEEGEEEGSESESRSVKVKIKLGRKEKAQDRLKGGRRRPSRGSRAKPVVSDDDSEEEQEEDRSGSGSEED
Sequence of SMARCA2 (P51531 whole entry): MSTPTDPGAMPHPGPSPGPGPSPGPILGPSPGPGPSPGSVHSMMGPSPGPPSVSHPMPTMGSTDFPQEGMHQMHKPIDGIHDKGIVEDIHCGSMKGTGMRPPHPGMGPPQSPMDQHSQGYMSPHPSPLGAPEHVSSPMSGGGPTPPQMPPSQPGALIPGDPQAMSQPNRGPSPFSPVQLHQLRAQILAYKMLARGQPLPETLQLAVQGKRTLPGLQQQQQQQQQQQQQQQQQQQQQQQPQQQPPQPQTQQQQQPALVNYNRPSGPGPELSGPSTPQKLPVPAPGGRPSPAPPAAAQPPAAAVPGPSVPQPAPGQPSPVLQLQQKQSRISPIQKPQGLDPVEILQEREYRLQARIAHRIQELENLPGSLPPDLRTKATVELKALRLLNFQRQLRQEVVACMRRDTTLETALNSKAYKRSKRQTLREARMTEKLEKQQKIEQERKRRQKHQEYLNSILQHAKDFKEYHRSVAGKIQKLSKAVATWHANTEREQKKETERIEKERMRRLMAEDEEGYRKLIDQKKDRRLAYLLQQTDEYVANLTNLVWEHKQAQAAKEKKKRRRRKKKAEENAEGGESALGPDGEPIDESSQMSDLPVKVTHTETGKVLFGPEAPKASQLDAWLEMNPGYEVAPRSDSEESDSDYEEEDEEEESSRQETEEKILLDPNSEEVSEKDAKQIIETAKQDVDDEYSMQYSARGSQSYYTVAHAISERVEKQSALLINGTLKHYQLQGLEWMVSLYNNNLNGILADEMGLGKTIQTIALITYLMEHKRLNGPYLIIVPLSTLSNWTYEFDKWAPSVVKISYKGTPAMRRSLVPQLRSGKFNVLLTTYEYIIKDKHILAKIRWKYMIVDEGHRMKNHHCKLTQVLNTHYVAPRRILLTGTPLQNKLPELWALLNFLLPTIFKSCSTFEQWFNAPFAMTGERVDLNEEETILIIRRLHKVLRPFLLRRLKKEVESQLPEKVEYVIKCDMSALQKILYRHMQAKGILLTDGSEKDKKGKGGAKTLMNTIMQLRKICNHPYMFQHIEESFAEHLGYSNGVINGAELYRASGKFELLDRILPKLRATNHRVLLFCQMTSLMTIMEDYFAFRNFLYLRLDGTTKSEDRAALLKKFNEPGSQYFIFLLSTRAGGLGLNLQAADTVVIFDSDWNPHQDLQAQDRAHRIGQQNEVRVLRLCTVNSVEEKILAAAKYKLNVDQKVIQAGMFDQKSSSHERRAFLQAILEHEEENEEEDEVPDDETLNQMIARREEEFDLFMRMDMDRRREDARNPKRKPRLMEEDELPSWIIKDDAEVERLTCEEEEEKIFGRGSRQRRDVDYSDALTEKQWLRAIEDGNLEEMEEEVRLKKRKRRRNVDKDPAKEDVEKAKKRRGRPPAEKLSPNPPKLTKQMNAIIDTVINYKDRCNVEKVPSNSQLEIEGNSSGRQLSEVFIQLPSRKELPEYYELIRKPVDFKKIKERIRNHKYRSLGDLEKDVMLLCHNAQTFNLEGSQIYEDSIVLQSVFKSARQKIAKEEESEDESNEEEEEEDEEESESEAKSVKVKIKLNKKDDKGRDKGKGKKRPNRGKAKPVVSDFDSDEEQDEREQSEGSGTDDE

SMILES | SMARCA2 Percent degradation @ 100 nM (SMARCA2) | IC50 (NCI-H929 cells) | SMARCA4 percent degradation at 0.1 µM (SMARCA4) | IC50 (NCI-H838 cells) | SMARCA4 Percent degradation @ 100 nM (SMARCA4)
Cc1ncsc1-c1ccc([C@H](C)NC(=O)[C@@H]2C[C@@H](O)CN2C(=O)[C@@H](NC(=O)C(C)N2CCN(c3cc(-c4ccccc4O)nnc3N)CC2)C(C)(C)C)cc1 (single isomer, unassigned) [Compound 57] | 79.6% | < 1000 nM |  |  | 
Cc1ncsc1-c1ccc([C@H](C)NC(=O)[C@@H]2C[C@@H](O)CN2C(=O)[C@@H](NC(=O)CCCCCCC(=O)N2CCN(c3cc(-c4ccccc4O)nnc3N)CC2)C(C)(C)C)cc1 [Compound 37] | 96% | < 1000 nM |  |  | 
Cc1ncsc1-c1ccc(C(NC(=O)[C@@H]2C[C@@H](O)CN2C(=O)[C@@H](NC(=O)CC2CCN(c3cc(-c4cccc(F)c4O)nnc3N)CC2)C(C)(C)C)C(F)(F)F)cc1 (stereo partly drawn) [Compound 76, (2S,4R)-1-((S)-2-(2-(1-(3-amino-6-(3-fluoro-2-hydroxyphenyl)pyridazin-4-yl)piperidin-4-yl)acetamido)-3,3-dimethylbutanoyl)-4-hydroxy-N-(2,2,2-trifluoro-1-(4-(4-methylthiazol-5-yl)phenyl)ethyl)pyrrolidine-2-carboxamide] | 90% |  | 12% |  | 
Cc1ncsc1-c1ccc([C@H](C)NC(=O)[C@@H]2C[C@@H](O)CN2C(=O)[C@@H](NC(=O)CC2(O)CCN(c3cc(-c4ccccc4O)nnc3N)CC2)C(C)(C)C)cc1 [Compound 55, (2S,4R)-1-((S)-2-(2-(1-(3-amino-6-(2-hydroxyphenyl)pyridazin-4-yl)-4-hydroxypiperidin-4-yl)acetamido)-3,3-dimethylbutanoyl)-4-hydroxy-N—((S)-1-(4-(4-methylthiazol-5-yl)phenyl)ethyl)pyrrolidine-2-carboxamide] |  | < 1000 nM |  | < 1000 nM | 
Cc1ncsc1-c1ccc([C@H](C)NC(=O)[C@@H]2C[C@@H](O)CN2C(=O)[C@@H](NC(=O)CCCCCCCCC(=O)N2CCN(c3cc(-c4ccccc4O)nnc3N)CC2)C(C)(C)C)cc1 [Compound 109] | 100% | < 1000 nM | 38% |  | 
Cc1ncsc1-c1ccc([C@H](C)NC(=O)[C@@H]2C[C@@H](O)CN2C(=O)[C@@H](NC(=O)CC2CCN(c3cc(-c4cccc(F)c4O)nnc3N)CC2)C(C)(C)C)cc1 [Compound 98] | 88% | < 1000 nM | 99% |  | 
Cc1ncsc1-c1ccc([C@H](C)NC(=O)[C@@H]2C[C@@H](O)CN2C(=O)[C@@H](NC(=O)CCCCCCCCCC(=O)N2CCN(c3cc(-c4ccccc4O)nnc3N)CC2)C(C)(C)C)cc1 [Compound 38] | 99% | 1000 to 10000 nM | 17% |  | 
Cc1ncsc1-c1ccc([C@H](C)NC(=O)[C@@H]2C[C@@H](O)CN2C(=O)[C@@H](NC(=O)C(C)C2CCN(c3cc(-c4cccc(F)c4O)nnc3N)CC2)C(C)(C)C)cc1 (single isomer, unassigned) [Compound 84] | 58% |  |  |  | 

Next, values leading:

SMARCA2 Percent degradation @ 100 nM (SMARCA2) | IC50 (NCI-H929 cells) | SMARCA4 percent degradation at 0.1 µM (SMARCA4) | IC50 (NCI-H838 cells) | SMARCA4 Percent degradation @ 100 nM (SMARCA4) | SMILES
20.2% | > 10000 nM |  |  |  | Cc1ncsc1-c1ccc([C@H](C)NC(=O)[C@@H]2C[C@@H](O)CN2C(=O)[C@H](C)NC(=O)CN2CCN(c3cc(-c4ccccc4O)nnc3N)CC2)cc1 [Compound 118]
99% | < 1000 nM | 99% |  |  | Cc1ncsc1-c1ccc([C@H](C)NC(=O)[C@@H]2C[C@@H](O)CN2C(=O)[C@@H](NC(=O)CN2CCN(c3cc(-c4ccccc4O)nnc3N)CC2)C(C)C)cc1 [Compound 79, (2S,4R)-1-((2-(4-(3-amino-6-(2-hydroxyphenyl)pyridazin-4-yl)piperazin-1-yl)acetyl)-L-valyl)-4-hydroxy-N—((S)-1-(4-(4-methylthiazol-5-yl)phenyl)ethyl)pyrrolidine-2-carboxamide]
97% | < 1000 nM |  |  |  | Cc1ncsc1-c1ccc(CNC(=O)[C@@H]2C[C@@H](O)CN2C(=O)[C@@H](NC(=O)CN2CCN(c3cc(-c4ccccc4O)nnc3N)CC2)C(C)(C)C)cc1 [Compound 39]
83% | < 1000 nM | 93% |  |  | Cc1ncsc1-c1ccc([C@H](C)NC(=O)[C@@H]2C[C@@H](O)CN2C(=O)[C@@H](NC(=O)C(C)(C)N2CCN(c3cc(-c4ccccc4O)nnc3N)CC2)C(C)(C)C)cc1 [Compound 87]
93% | 1000 to 10000 nM | 82% |  |  | Cc1ncsc1-c1ccc([C@H](C)NC(=O)[C@@H]2C[C@@H](O)CN2C(=O)[C@@H](NC(=O)CN2CCN(c3cc(-c4ccccc4F)nnc3N)CC2)C(C)(C)C)cc1 [Compound 44]
87% |  |  |  | 87% | CC(=O)O[C@@H]1C[C@@H](C(=O)N[C@@H](C)c2ccc(-c3scnc3C)cc2)N(C(=O)[C@@H](NC(=O)CN2CCN(c3cc(-c4ccccc4O)nnc3N)CC2)C(C)(C)C)C1 [Compound 47, (3R,5S)-1-((S)-2-(2-(4-(3-amino-6-(2-hydroxyphenyl)pyridazin-4-yl)piperazin-1-yl)acetamido)-3,3-dimethylbutanoyl)-5-(((S)-1-(4-(4-methylthiazol-5-yl)phenyl)ethyl)carbamoyl)pyrrolidin-3-yl acetate]
5.4% |  |  |  | 28% | CC(=O)O[C@@H]1C[C@@H](C(=O)NCc2ccc(-c3scnc3C)cc2)N(C(=O)[C@@H](NC(=O)CN2CCN(c3cc(-c4ccccc4O)nnc3N)CC2)C(C)(C)C)C1 [Compound 48, (3R,5S)-1-((S)-2-(2-(4-(3-amino-6-(2-hydroxyphenyl)pyridazin-4-yl)piperazin-1-yl)acetamido)-3,3-dimethylbutanoyl)-5-((4-(4-methylthiazol-5-yl)benzyl)carbamoyl)pyrrolidin-3-yl acetate]
45.4% | 1000 to 10000 nM | 47% |  |  | CO[C@@H]1C[C@@H](C(=O)N[C@@H](C)c2ccc(-c3scnc3C)cc2)N(C(=O)[C@@H](NC(=O)CN2CCN(c3cc(-c4ccccc4O)nnc3N)CC2)C(C)(C)C)C1 [Compound 117]
99% | < 1000 nM | 100% |  |  | Cc1ncsc1-c1ccc([C@H](C)NC(=O)[C@@H]2C[C@@H](O)CN2C(=O)[C@@H](NC(=O)C(C)N2CCN(c3cc(-c4ccccc4O)nnc3N)CC2)C(C)(C)C)cc1 (stereo partly drawn) [Compound 56, (2S,4R)-1-((2S)-2-(2-(4-(3-amino-6-(2-hydroxyphenyl)pyridazin-4-yl)piperazin-1-yl)propanamido)-3,3-dimethylbutanoyl)-4-hydroxy-N—((S)-1-(4-(4-methylthiazol-5-yl)phenyl)ethyl)pyrrolidine-2-carboxamide]
64% |  | 60% |  |  | Nc1nnc(-c2ccccc2O)cc1N1CCN(CC(=O)Nc2cccc3c2C(=O)N(C2CCC(=O)NC2=O)C3=O)CC1 (stereo not shown) [Compound 41]
